Test results reported in paper PMC4936272 (Bioorganic & medicinal chemistry letters, 2016).
pIC50: −log10 of the molar value.

Tests used:
Male ICR mice = assay: Mouse tail flick test; type: in vivo; conditions: for Analgesia in tail flick test: 50 mg/kg intraperitoneal (IP); for Analgesia in tail flick test, dose-response: lower doses than 50 mg/kg IP
human FAAH = target: T1, human FAAH (Homo sapiens, UniProt O00519); assay: Reversibility of FAAH inactivation by exhaustive dialysis; conditions: 144 hrs dialysis at 4°C after complete inactivation
T1 sequence (O00519 34-579): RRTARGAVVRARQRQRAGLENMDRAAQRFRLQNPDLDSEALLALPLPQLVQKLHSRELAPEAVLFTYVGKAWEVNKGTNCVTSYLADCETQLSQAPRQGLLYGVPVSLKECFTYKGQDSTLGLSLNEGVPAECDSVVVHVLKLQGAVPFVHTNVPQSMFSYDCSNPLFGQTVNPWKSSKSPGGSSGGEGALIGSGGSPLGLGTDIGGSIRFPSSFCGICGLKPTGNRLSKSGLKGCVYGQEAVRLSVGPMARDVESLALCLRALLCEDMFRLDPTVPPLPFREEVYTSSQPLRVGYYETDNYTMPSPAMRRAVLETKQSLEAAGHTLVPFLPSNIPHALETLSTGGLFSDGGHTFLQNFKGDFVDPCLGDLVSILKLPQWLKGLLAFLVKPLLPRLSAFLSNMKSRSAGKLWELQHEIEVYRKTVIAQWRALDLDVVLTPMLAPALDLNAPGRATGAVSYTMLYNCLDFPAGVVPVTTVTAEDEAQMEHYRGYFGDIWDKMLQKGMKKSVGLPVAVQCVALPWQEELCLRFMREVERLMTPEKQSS

FAAH = conditions: cited from earlier work

| Compound | Analgesia in tail flick test (Male ICR mice) | Analgesia in tail flick test, dose-response (Male ICR mice) | other results |
| --- | --- | --- | --- |
| O=C(Oc1ccccc1)N1CCC(c2nc(C3=NOC(c4ccccc4)C3)cs2)CC1 (stereo not shown) [Compound 1a, phenyl 4-[4-(4,5-dihydro-5-phenyl-3-isoxazolyl)-2-thiazolyl]-1-piperidinecarboxylate] | significant analgesic effects | failed to produce significant analgesia | – |
| N#Cc1ccc(OC(=O)N2CCC(c3nc(C4=NOC(c5ccccc5)C4)cs3)CC2)cc1 (stereo not shown) [Compound 1b] | significant analgesic effects | clear dose-dependent effects down to 5 mg/kg | – |
| O=C(Oc1cccnc1)N1CCC(c2nc(C3=NOC(c4ccccc4)C3)cs2)CC1 (stereo not shown) [Compound 1o] | did not produce analgesia | – | – |
| COc1ccc(OC(=O)N2CCC(c3nc(C4=NOC(c5ccccc5)C4)cs3)CC2)cc1 (stereo not shown) [Compound 1p] | did not produce analgesia | – | – |
| O=C(Nc1cnccn1)N1CCC(c2nc(C3=NOC(c4ccccc4)C3)cs2)CC1 (stereo not shown) [Compound 2e] | significant analgesic effects | failed to produce significant analgesia | – |
| O=C(Nc1cccnn1)N1CCC(c2nc(C3=NOC(c4ccccc4)C3)cs2)CC1 (stereo not shown) [Compound 2f] | significant analgesic effects | failed to produce significant analgesia | – |
| O=C(Nc1ccccc1)N1CCN(c2nc(-c3ccccc3)ns2)CC1 [JNJ-1661010] | – | – | Recovery of FAAH activity after dialysis (human FAAH): ~30% |
| O=C(Nc1cccnc1)N1CCC(Cc2cccc(Oc3ccc(C(F)(F)F)cn3)c2)CC1 [PF-3845] | – | – | kinact reported for other chemotypes (FAAH): 0.0033 s⁻¹ |
